The results in this text go back to PubChem BioAssay (NCI).

“And” between values parts separate entries of the source, which are not always exact repeats. Identical values can stand only once.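 A five-concentration, 48-hour dose response in 96-well plates underlies each endpoint, interpolated linearly between surrounding concentrations. GI50: concentration for 50% inhibition of growth. At the TGI there is no net growth.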

Some test systems named below: SNB-19 CNS; DLD-1 colon; SNB-75 CNS; HT29 colon; M19-MEL melanoma; ACHN renal; SF-295 CNS; SK-MEL-5 melanoma; SK-MEL-2 melanoma; PC-3 prostate.
Common to all, as to test: NCI tumour cell line growth inhibition, 48 h

Take `COC(=O)/C(=N\NC(=O)C[N+](C)(C)C)C(C(=O)OC)C(=O)C(=O)Nc1ccccc1C(N)=O` (stereo not drawn): the TGI in the assay on SNB-19 CNS, in the assay with DLD-1 colon, with SNB-75 CNS, with HT29 colon, in the assay on M19-MEL melanoma and in the assay on ACHN renal was greater than 100 µM each time. Further, the TGI with SF-295 CNS, in the assay on SK-MEL-5 melanoma and with SK-MEL-2 melanoma was greater than 100 µM throughout.
On to `O=c1[nH]nc2ccccc2c1Cc1ccccc1`, for which the TGI in the assay with SNB-19 CNS, in the assay with DLD-1 colon, in the assay with SNB-75 CNS, with HT29 colon, in the assay on M19-MEL melanoma and in the assay on ACHN renal was greater than 100 µM throughout. Also, the TGI with SF-295 CNS, in the assay on SK-MEL-5 melanoma and in the assay on SK-MEL-2 melanoma was greater than 100 µM in each case.
For the compound `O=C(NC(=O)c1cn(CCN(CCO)C(=O)NCCCCCCNC(=O)N(CCO)CCn2cc(C(=O)NC(=O)OCc3ccccc3)c(=O)[nH]c2=O)c(=O)[nH]c1=O)OCc1ccccc1`, the TGI in the assay with SNB-19 CNS, in the assay on DLD-1 colon, in the assay on SNB-75 CNS, in the assay on HT29 colon, with M19-MEL melanoma and in the assay on ACHN renal was greater than 100 µM each time. Also, the TGI in the assay on SF-295 CNS, in the assay with SK-MEL-5 melanoma and in the assay on SK-MEL-2 melanoma was greater than 100 µM in each case.
With `CC1OC(OC2C[C@](O)(C(=O)CF)Cc3c(O)c4c(c(O)c32)C(=O)c2ccccc2C4=O)CC(N)C1O` (stereo partly drawn), the TGI in the assay with SNB-19 CNS stood at 5.23 µM; in the assay on DLD-1 colon, 0.333 µM; with SNB-75 CNS it was 0.09 µM; with HT29 colon, 0.0905 µM; with M19-MEL melanoma, 0.248 µM; with ACHN renal, 0.0777 µM. The TGI with SF-295 CNS was 4.74 µM; in the assay on SK-MEL-5 melanoma it was 0.0657 µM; in the assay on SK-MEL-2 melanoma it was 0.512 µM; with PC-3 prostate it was 0.354 µM.
With `COc1ccc2c(c1)[n+]([O-])c(-c1ccc(OC)c(OC)c1)c(N)[n+]2[O-]`, the TGI in the assay with SNB-19 CNS, in the assay on DLD-1 colon, in the assay on SNB-75 CNS, in the assay on HT29 colon, in the assay with M19-MEL melanoma and in the assay with ACHN renal was greater than 100 µM in each case. In addition, the TGI with SF-295 CNS is greater than 100 µM; with SK-MEL-5 melanoma, 83 µM; with SK-MEL-2 melanoma it was greater than 100 µM.
For `O=C1NC2(CCCCCC2)C2CCCCCCC12O` (stereo not drawn), the TGI with SNB-19 CNS, in the assay with DLD-1 colon, in the assay with SNB-75 CNS, in the assay with HT29 colon, with M19-MEL melanoma and in the assay on ACHN renal was greater than 100 µM each time. Moreover, the TGI in the assay with SF-295 CNS, in the assay on SK-MEL-5 melanoma and in the assay on SK-MEL-2 melanoma was greater than 100 µM in each case.
On to `Cc1cc2c(C)nn(Cc3ccccc3)c2c(C(N)=O)c1C`, for which the TGI with SNB-19 CNS is greater than 100 µM; with DLD-1 colon it was greater than 100 µM; with SNB-75 CNS, 58.8 µM; in the assay with HT29 colon, greater than 100 µM; in the assay with M19-MEL melanoma, greater than 100 µM; in the assay on ACHN renal, greater than 100 µM. The TGI in the assay with SF-295 CNS, with SK-MEL-5 melanoma and in the assay on SK-MEL-2 melanoma was greater than 100 µM throughout.
Consider `c1ccc(C(c2ccccc2)c2cccnc2)cc1`, for which the TGI in the assay on SNB-19 CNS, in the assay on DLD-1 colon, in the assay on SNB-75 CNS, in the assay with HT29 colon, with M19-MEL melanoma and in the assay with ACHN renal was greater than 100 µM throughout. Besides, the TGI in the assay on SF-295 CNS, with SK-MEL-5 melanoma and in the assay on SK-MEL-2 melanoma was greater than 100 µM throughout.
For `c1cc2n(n1)CCN2`, the TGI in the assay on SNB-19 CNS is greater than 10000 µM; in the assay with DLD-1 colon it was greater than 10000 µM; with SNB-75 CNS, 9460 µM; in the assay with HT29 colon, greater than 10000 µM; in the assay on M19-MEL melanoma, greater than 10000 µM; in the assay with ACHN renal, 5330 µM. For the same compound, the TGI in the assay on SF-295 CNS is 4350 µM; with SK-MEL-5 melanoma it was greater than 7740 µM; with SK-MEL-2 melanoma, greater than 7500 µM; in the assay with PC-3 prostate, greater than 10000 µM.
Take `Cc1cc(NCCCCCCNc2cc(C)nc3cc(N(C)C)ccc23)c2ccc(N(C)C)cc2n1`: the TGI with SNB-19 CNS was 92.7 µM; in the assay with DLD-1 colon, greater than 100 µM; in the assay with SNB-75 CNS, greater than 100 µM; with HT29 colon, greater than 100 µM; in the assay with M19-MEL melanoma it was greater than 100 µM; in the assay on ACHN renal it was greater than 100 µM. Also, the TGI in the assay with SF-295 CNS, in the assay with SK-MEL-5 melanoma and in the assay with SK-MEL-2 melanoma was greater than 100 µM throughout.
On to `C1COCCN1.C1COCCN1.NC1CCCCC1N.[Cl-].[Pt+2]` (stereo not drawn), for which the GI50 in the assay on SNB-19 CNS, in the assay on DLD-1 colon, in the assay with SNB-75 CNS, in the assay on HT29 colon, in the assay with M19-MEL melanoma and in the assay on ACHN renal was greater than 100 µM in each case. Besides, the GI50 in the assay on SF-295 CNS, with SK-MEL-5 melanoma and with SK-MEL-2 melanoma was greater than 100 µM each time. The TGI in the assay on SNB-19 CNS, in the assay with DLD-1 colon, in the assay on SNB-75 CNS, in the assay on HT29 colon, in the assay with M19-MEL melanoma and in the assay with ACHN renal was greater than 100 µM in each case. Besides, the TGI in the assay on SF-295 CNS, in the assay on SK-MEL-5 melanoma and in the assay on SK-MEL-2 melanoma was greater than 100 µM in each case.
Regarding `CCOC1=C2C(=O)OC(=O)C2C2CCCCC2=C1` (stereo not drawn), the TGI in the assay with SNB-19 CNS, with DLD-1 colon, in the assay with SNB-75 CNS, in the assay with HT29 colon, with M19-MEL melanoma and in the assay with SF-295 CNS was greater than 100 µM each time. Besides, the TGI in the assay on SK-MEL-5 melanoma and in the assay with SK-MEL-2 melanoma was greater than 100 µM throughout.
On to `O=c1c2ccccc2c(=O)n2n1CC=CC2`, for which the TGI in the assay with SNB-19 CNS, with DLD-1 colon, with SNB-75 CNS, in the assay on HT29 colon, with M19-MEL melanoma and in the assay with ACHN renal was greater than 100 µM each time. In addition, the TGI in the assay on SF-295 CNS, in the assay with SK-MEL-5 melanoma and in the assay on SK-MEL-2 melanoma was greater than 100 µM each time.
As for `O=CN/C=C/c1cccc(O)c1`, the TGI with SNB-19 CNS is greater than 100 µM; with DLD-1 colon, greater than 100 µM; in the assay on SNB-75 CNS, greater than 92.5 µM; in the assay on HT29 colon, 74.8 µM; in the assay on M19-MEL melanoma it was greater than 100 µM; in the assay with ACHN renal it was 84.6 µM. Also, the TGI with SF-295 CNS is greater than 63.1 µM; in the assay on SK-MEL-5 melanoma, greater than 75.6 µM; in the assay with SK-MEL-2 melanoma, greater than 81.6 µM; in the assay with PC-3 prostate, greater than 100 µM.
For `CC(C)CCCC(C)[C@H]1CCC2[C@@H]3CCC4Nc5nocc5C[C@]4(C)C3CC[C@@]21C` (stereo partly drawn), the TGI was determined as 37.5 µM in the assay on SNB-19 CNS; 41 µM in the assay on DLD-1 colon; 33.8 µM with SNB-75 CNS; 37.1 µM with HT29 colon; 33.7 µM in the assay with M19-MEL melanoma; 28.6 µM in the assay on ACHN renal. The TGI worked out at 34 µM in the assay with SF-295 CNS, 29.2 µM in the assay on SK-MEL-5 melanoma and 38.7 µM in the assay on SK-MEL-2 melanoma.
`COc1cc(NC(C)CCCN)c2ncccc2c1` (stereo not drawn): in the assay with SNB-19 CNS, the GI50 is 39.8 µM and > 100 µM. Also, the TGI in the assay on SNB-19 CNS is greater than 100 µM; with DLD-1 colon, greater than 100 µM; in the assay on SNB-75 CNS it was > 100 µM and 80.5 µM; in the assay with HT29 colon, greater than 95.4 µM; in the assay with M19-MEL melanoma it was greater than 100 µM; in the assay on ACHN renal, greater than 100 µM. Moreover, the TGI in the assay on SF-295 CNS is greater than 100 µM; in the assay on SK-MEL-5 melanoma, 32.3 µM and 57.3 µM; in the assay with SK-MEL-2 melanoma it was greater than 89.3 µM; with PC-3 prostate, greater than 100 µM.
Regarding `O=C1Nc2nc3ccccc3n2N=C2CCCC12` (stereo not drawn), the TGI in the assay on SNB-19 CNS, with DLD-1 colon, with SNB-75 CNS, in the assay on HT29 colon, with M19-MEL melanoma and in the assay on ACHN renal was greater than 100 µM throughout. Besides, the TGI with SF-295 CNS, in the assay with SK-MEL-5 melanoma and in the assay on SK-MEL-2 melanoma was greater than 100 µM throughout.
Regarding `O=C1C2C3C=C4c5ccccc5N(c5ccccc5)C4(C2C(=O)N1c1ccc(Cl)cc1)[C@H]1C(=O)N(c2ccc(Cl)cc2)C(=O)[C@@H]31` (stereo partly drawn), the TGI in the assay on SNB-19 CNS, in the assay on DLD-1 colon, in the assay with SNB-75 CNS, in the assay with HT29 colon, in the assay with M19-MEL melanoma and with SF-295 CNS was greater than 100 µM throughout. In addition, the TGI in the assay with SK-MEL-5 melanoma and in the assay with SK-MEL-2 melanoma was greater than 100 µM in each case.
As for `COc1cc([C@@H]2c3cc4c(cc3[C@@H](OC(=O)c3ccc(N)cc3)C3COC(=O)[C@@H]32)OCO4)cc(OC)c1O` (stereo partly drawn), the TGI with SNB-19 CNS is greater than 95 µM; in the assay with DLD-1 colon it was greater than 95 µM; in the assay with SNB-75 CNS, 36.4 µM; in the assay with HT29 colon it was 21.2 µM; in the assay with M19-MEL melanoma, greater than 95 µM; in the assay on ACHN renal, 28.2 µM. Moreover, the TGI with SF-295 CNS was greater than 95 µM; with SK-MEL-5 melanoma it was 16.7 µM; in the assay with SK-MEL-2 melanoma, 59.6 µM.
For `COC(=O)c1ccccc1OCc1cc(=O)oc2ccc(C)cc12`, the TGI in the assay with SNB-19 CNS was 38.9 µM; with DLD-1 colon it was greater than 100 µM; in the assay on SNB-75 CNS it was 45.5 µM; with HT29 colon, greater than 100 µM; in the assay with M19-MEL melanoma it was greater than 100 µM; with ACHN renal it was greater than 100 µM. Moreover, the TGI with SF-295 CNS was greater than 81.2 µM; with SK-MEL-5 melanoma it was greater than 100 µM; in the assay on SK-MEL-2 melanoma it was greater than 85.4 µM; with PC-3 prostate, greater than 100 µM.
